The term CC50 denotes the concentration giving 50% cytotoxicity. Higher therefore signals better tolerance by the cells.

Structures can show the parent of a compound that is named as a salt.

This data set can be described thus: in vitro. The settings on record: rat, gh3-tre-luc cells.

In turn, `CCC[Si](OC)(OC)OC` [Trimethoxypropylsilane] returned a 50% cytotoxic concentration (CC50) at 24 h (AC50 (uM) modified / 1000) above 90 µM.
Still for that read-out and setting: the figure for `CCC(CO)(CO)[N+](=O)[O-]` [2-Ethyl-2-nitro-1,3-propanediol] is above 90 µM.
Consider `CN1C(=O)CC(=O)N(c2ccccc2)c2cc(Cl)ccc21` [Clobazam], for which the cytotoxic concentration (CC50) at 24 h (AC50 (uM) modified / 1000, Tox21_110001=Tox21_112608, viability, 1 nM T3 present, 24 h) was above 50 µM.
As to `O=C(O)c1cccc(Oc2ccccc2)c1` [3-Phenoxybenzoic acid], the CC50 at 24 h (AC50 (uM) modified / 1000) is above 90 µM.
Where the note is “AC50 (uM) modified / 1000, Tox21_110001=Tox21_301901, viability, 1 nM T3 present, 24 h”, `CCCN(CCC)c1c([N+](=O)[O-])cc(S(C)(=O)=O)cc1[N+](=O)[O-]` [Nitralin] gave a CC50 at 24 h above 90 µM.
Consider `Cc1ccc([N+](=O)[O-])cc1Cl` [2-Chloro-1-methyl-4-nitrobenzene], for which, where the note is “AC50 (uM) modified / 1000”, the CC50 at 24 h is above 90 µM.
On the same count and under the same terms, for `O=C(Cl)c1ccc([N+](=O)[O-])cc1` [4-Nitrobenzoyl chloride] the value was above 90 µM; for `ClC/C=C/CCl` [(2E)-1,4-Dichlorobut-2-ene], above 90 µM.
As to `CN(C)c1ccc(N)cc1` [N,N-Dimethyl-p-phenylenediamine], it took 59.3 µM to reach half-maximal cytotoxicity (AC50 (uM) modified / 1000, Tox21_110001=Tox21_200191, viability, 1 nM T3 present, 24 h) (CC50 at 24 h).
As to `C=CCOC(=O)c1ccc(C(=O)OCC=C)c(C(=O)OCC=C)c1` [Triallyl trimellitate], for the setting “AC50 (uM) modified / 1000”, the cytotoxic concentration (CC50) at 24 h was above 90 µM.
`Oc1ncc(N(CCCl)CCCl)c(O)n1` [Uracil mustard] gave a CC50 at 24 h (AC50 (uM) modified / 1000) above 50 µM.
Same read-out and setting: for `c1ccc(OCCOc2ccccc2)cc1` [1,2-Diphenoxyethane] the value was above 90 µM.
Still for that read-out and setting: the figure for `NC(=S)N/N=C/c1cccnc1` [Nicothiazone] is above 50 µM; for `O=C(O)c1c(Cl)c(Cl)c(Cl)c(Cl)c1-c1c2cc(I)c(=O)c(I)c-2oc2c(I)c(O)c(I)cc12` [Rose bengal sodium] it is 20.9 µM; for `O=[N+]([O-])c1ccccc1CCO` [2-(2-Nitrophenyl)ethanol] it is above 90 µM.
The same measure, in the same setting: for `CCCOCC(C)OCC(C)O` (stereo not drawn) [Butyl dipropasol solvent] the value was above 90 µM.
In turn, `CCCCCCCCC(=O)NCc1ccc(O)c(OC)c1` [Nonivamide] had a CC50 at 24 h (AC50 (uM) modified / 1000) above 90 µM.
Same read-out and setting: for `Cc1ccccc1CNc1ncnc2c1ncn2[C@@H]1O[C@H](CO)[C@@H](O)[C@H]1O` [Metrifudil] the value was above 50 µM; for `Cc1cc(O)c(Cl)c(C)c1Cl` [2,4-Dichloro-3,5-dimethylphenol], 56.9 µM; for `O=C(O)CC/C=C\CC[C@@H]1[C@@H](N2CCCCC2)[C@@H](O)C[C@@H]1OCc1ccc(-c2ccccc2)cc1` [Vapiprost hydrochloride], above 50 µM.
On the same count and under the same terms, for `NC1CCN(c2nc3c(cc2F)c(=O)c(C(=O)O)cn3-c2ccc(F)cc2F)C1` (stereo not drawn) [Tosufloxacin toluenesulfonic acid] the value was above 50 µM.
Same read-out and setting: for `CCNC(=O)N1CCN(CCCC(c2ccc(F)cc2)c2ccc(F)cc2)CC1` [Amperozide hydrochloride] the value was 19.7 µM; for `CS(=O)(=O)c1ccc(C(=O)C2C(=O)CCCC2=O)c([N+](=O)[O-])c1` [Mesotrione], above 90 µM.
With `Nc1ccc(Oc2ccc(Cl)cc2)cc1` [4-Chloro-4'-aminodiphenyl ether], the half-maximal cytotoxic concentration (CC50) at 24 h (AC50 (uM) modified / 1000) was above 90 µM.
The same measure, in the same setting: for `COC[C@@H](c1ccc(C(F)(F)F)cc1)N1CCN(C2(C)CCN(C(=O)c3c(C)ncnc3C)CC2)C[C@@H]1C` [Vicriviroc maleate] the value was above 50 µM; for `CC1CC[C@@H]2C[C@H]1C2(C)C` (stereo partly drawn) [Pinane], above 90 µM.
Regarding `CCOC(=O)CCl` [Ethyl chloroacetate], for the setting “AC50 (uM) modified / 1000, Tox21_110001=Tox21_201053, viability, 1 nM T3 present, 24 h”, the CC50 at 24 h was above 90 µM.
Under “AC50 (uM) modified / 1000”, `CCCCCCCCCCCCS` [1-Dodecanethiol] returned a CC50 at 24 h above 90 µM.
On the same count and under the same terms, the figure for `CC(C)CCOC(=O)CC(C)C` [3-Methylbutyl 3-methylbutanoate] is above 90 µM.
`CCN(CC)CCNC(=O)c1c(C)[nH]c(/C=C2\C(=O)Nc3ccc(F)cc32)c1C` [Sunitinib malate] showed a half-maximal cytotoxic concentration (CC50) at 24 h (AC50 (uM) modified / 1000) of 20.1 µM. This counts as double-digit micromolar.
`C=CCC1([C@H](C)CCC)C(=O)NC(=O)NC1=O` [R-(+)-Secobarbital]: the 50% cytotoxic concentration (CC50) at 24 h (AC50 (uM) modified / 1000) was above 90 µM.
The same measure, in the same setting: for `COc1cc(C=O)cc2c1[C@H](COC(N)=O)[C@]1(OC(C)=O)ON2C[C@H]2[C@@H]1N2C(C)=O` [PharmaGSID_48166] the value was 1.23 µM; for `Cc1oc2c(NC(=O)c3c(Cl)cccc3Cl)cccc2c1C(C)(C)O` [FR167356], 19.6 µM; for `c1ccc(Nc2ccc(Nc3ccccc3)cc2)cc1` [N,N'-Diphenyl-p-phenylenediamine], 33.3 µM.
Consider `C[C@]12C=CC(=O)N[C@@H]1CC[C@@H]1[C@@H]2CC[C@]2(C)[C@@H](C(=O)Nc3cc(C(F)(F)F)ccc3C(F)(F)F)CC[C@@H]12` [Dutasteride], for which the CC50 at 24 h (AC50 (uM) modified / 1000) is above 50 µM.
In the case of `OC1CCCC1` [Cyclopentanol], where the note is “AC50 (uM) modified / 1000”, the CC50 at 24 h was above 90 µM.
Under “AC50 (uM) modified / 1000”, `CCc1cccc(C)c1` [3-Ethyltoluene] yielded a CC50 at 24 h above 90 µM.
As for `Cc1ccc(Nc2ccc(O)c3c2C(=O)c2ccccc2C3=O)cc1` [D&C Violet 2], the CC50 at 24 h (AC50 (uM) modified / 1000) was above 90 µM.
The same measure, in the same setting: the figure for `CCOc1cc(OCC)c(C(=O)CCC(=O)O)cc1OCC` [Trepibutone] is above 50 µM.
The same measure, in the same setting: the figure for `CCOC(=O)C(C)Oc1ccc(Oc2cnc3cc(Cl)ccc3n2)cc1` (stereo not drawn) [Quizalofop-ethyl] is above 90 µM; for `CCOC(=O)[C@H](CCc1ccccc1)N[C@H]1CS[C@H](c2cccs2)CN(CC(=O)O)C1=O` [Temocapril hydrochloride] it is above 50 µM.
`CCOP(=S)(OCC)SCn1nnc2ccccc2c1=O` [Azinphos-ethyl]: the CC50 at 24 h (AC50 (uM) modified / 1000, Tox21_110001=Tox21_301421, viability, 1 nM T3 present, 24 h) was above 90 µM.
`CCCCC(C)C(=O)O` (stereo not drawn) [2-Methylhexanoic acid] gave a half-maximal cytotoxic concentration (CC50) at 24 h (AC50 (uM) modified / 1000) above 90 µM.
On the same count and under the same terms, the figure for `CCSC(=O)N(CC)C1CCCCC1` [Cycloate] is above 90 µM; for `CCCCCCCCN[C@@H](C)[C@H](O)c1ccc(SC(C)C)cc1` (racemic) [Suloctdil] it is 4.84 µM.
The same measure, in the same setting: for `NC(=O)N[C@@H](CCC(=O)O)C(=O)O` [N-Carbamyl-L-glutamic acid] the value was above 50 µM; for `CCN(CC)c1cccc(O)c1` [3-Diethylaminophenol], above 90 µM.
On to `CN(C)CCOC(=O)C(c1ccccc1)C1(O)CCCC1` (stereo not drawn) [Cyclopentolate hydrochloride], for which the CC50 at 24 h (AC50 (uM) modified / 1000) is above 50 µM.
For `OC(CCN1CCCCC1)(c1ccccc1)C1CCCCC1` (stereo not drawn) [Trihexyphenidyl hydrochloride], the CC50 at 24 h (AC50 (uM) modified / 1000) was above 50 µM.
Take `CCCCCCCCCCCCC(=O)O` [Tridecanoic acid]: under “AC50 (uM) modified / 1000”, the half-maximal cytotoxic concentration (CC50) at 24 h is above 90 µM.
Same read-out and setting: for `Cc1ccc(Nc2c(F)cccc2Cl)c(CC(=O)O)c1` [Lumiracoxib] the value was above 50 µM.
Same read-out and setting: the figure for `CC(C)=CC(C)(C)C` [2,4,4-Trimethyl-2-pentene] is above 90 µM; for `CCCCCCCC[Si](OCC)(OCC)OCC` [Triethoxyoctylsilane] it is above 90 µM.
For `Cc1ccc(S(=O)(=O)NC2CCCCC2)cc1` [N-Cyclohexyl-4-methylbenzenesulfonamide], for the setting “AC50 (uM) modified / 1000”, the CC50 at 24 h is above 90 µM.
Compound `O=NN(CCCl)C(=O)NCCCl` [Carmustine] displayed a CC50 at 24 h (AC50 (uM) modified / 1000) above 50 µM.
Same read-out and setting: the figure for `CC(=O)Nc1ccc(S(=O)(=O)Cl)cc1` [4-(Acetylamino)benzenesulfonyl chloride] is above 90 µM; for `NC(Cc1c[nH]c2ccccc12)C(=O)O` (racemic) [dl-Tryptophan] it is above 50 µM; for `O=C(NCCO[N+](=O)[O-])c1cccnc1` [Nicorandil] it is above 50 µM.
The same measure, in the same setting: the figure for `CC(C)CCCCCOC(=O)CCCOc1ccc(Cl)cc1Cl` [2,4-DB-isooctyl ester] is above 90 µM.
The compound `Cc1ccccc1NC(=N)NC(=N)N` [1-(o-Tolyl)biguanide] yielded a CC50 at 24 h (AC50 (uM) modified / 1000) above 90 µM.
Under “AC50 (uM) modified / 1000”, `CCCCCCOCCOCCO` [2-[2-(Hexyloxy)ethoxy]ethanol] returned a half-maximal cytotoxic concentration (CC50) at 24 h above 90 µM.
Where the note is “AC50 (uM) modified / 1000”, `CC(=O)NS(=O)(=O)c1ccc(N)cc1` [Sulfacetamide] displayed a cytotoxic concentration (CC50) at 24 h above 90 µM.
Take `CCCC(=O)Nc1ncnc2c1ncn2[C@@H]1O[C@@H]2COP(=O)(O)O[C@H]2[C@H]1OC(=O)CCC` [Bucladesine]: under “AC50 (uM) modified / 1000”, the cytotoxic concentration (CC50) at 24 h is above 50 µM.
As for `COc1cc2nc(N(C)CCCNC(=O)C3CCCO3)nc(N)c2cc1OC` (stereo not drawn) [Alfuzosin hydrochloride], for the setting “AC50 (uM) modified / 1000”, the CC50 at 24 h was above 20 µM.
The same measure, in the same setting: the figure for `CN/C(=N/CCSCc1nc[nH]c1C)NC#N` [Cimetidine] is above 90 µM; for `C=CC(=C)C` [Isoprene] it is above 90 µM; for `O=C(Oc1ccc(Br)cc1)N1CCN2CCC1CC2` [SSR180711] it is 44 µM.
Still for that read-out and setting: the figure for `CCCCC/C(=C\c1ccccc1)CO` [alpha-Amylcinnamyl alcohol] is 46.6 µM.
Consider `C[C@]12C=CC(=O)C=C1CC[C@@H]1[C@@H]2[C@@H](O)C[C@@]2(C)[C@H]1CC[C@]2(O)C(=O)COC(=O)CCC(=O)O` [Prednisolone 21-hemisuccinate], for which the half-maximal cytotoxic concentration (CC50) at 24 h (AC50 (uM) modified / 1000) is above 50 µM.
`CCCCCCCC/C=C/CCCOC(C)=O` [(E)-4-Tridecen-l-yl acetate] had a cytotoxic concentration (CC50) at 24 h (AC50 (uM) modified / 1000) above 90 µM.
Same read-out and setting: the figure for `CN1CCN(c2c(F)cc3c(=O)c(C(=O)O)cn(CCF)c3c2F)CC1` [Fleroxacin] is above 50 µM.
The same measure, in the same setting: the figure for `C[C@@H](O)C[C@@H](C)O` [2,4-Pentanediol] is above 90 µM; for `Oc1ccc2c3c1O[C@H]1[C@@H](O)CC[C@@]4(O)[C@@H](C2)N(CC2CCC2)CC[C@]314` [Nalbuphine] it is above 50 µM.
`O=C(Cc1ccccc1)OCCc1ccccc1` [2-Phenylethyl phenylacetate] registered a CC50 at 24 h (AC50 (uM) modified / 1000, Tox21_110001=Tox21_300689, viability, 1 nM T3 present, 24 h) above 90 µM.
In the case of `O=c1c2ccccc2oc2ccccc12` [Xanthone], the CC50 at 24 h (AC50 (uM) modified / 1000) is above 90 µM.

Source of the values: publication PMC6792352, “Limited Chemical Structural Diversity Found to Modulate Thyroid Hormone Receptor in the Tox21 Chemical Library” (Environmental Health Perspectives, 2019).
